Experimental findings from publication PMC9481570, “A small molecule antagonist of SMN disrupts the interaction between SMN and RNAP II” (Nature Communications, 2022) are described below.

The assay concerns the target T1, tandem Tudor domain (TTD) of UHRF1 (Homo sapiens, UniProt Q96T88).
T1 construct: UHRF1 (aa 126–285); His (N, cleaved yes); made in house; host or cells: E. coli BL21 (DE3) Codon plus RIL
Nature of the assay: Fluorescein polarization-based peptide displacement screen. Conditions: 2 mM compound, 8 μM UHRF1 TTD, 40 nM FITC-H3K9me3 peptide; hit = signal less than 50% of negative control. The format is binding. The procedure:
A small molecule fragment library with 2040 compounds was screened against TTD of UHRF1 by fluorescein polarization-based peptide displacement assay according to previous reports. Briefly, the screening was performed in 10 μL at a protein concentration of 8 μM premixed with a 40 nM FITC-labeled H3K9me3 peptide (aa 1–25, Tufts University Core Services), and then adding a single concentration of 2 mM compound in a buffer of 20 mM Tris-HCl, pH 8.8, 50 mM NaCl, and 0.01% Triton X-100. The hits were further confirmed by dose response analysis with 1 mM as the highest concentration with 11 sequential 2-fold dilutions. All the assays were performed in duplicate in 384-well plates (Greiner, 784290), using the Synergy 4 microplate reader (BioTek), with an excitation wavelength of 485 nm and an emission wavelength of 528 nm. Data were corrected by background of the free labeled peptides and analyzed by GraphPad Prism version 5 software. […]
Tris -HCl, pH 8.8, 50 mM NaC l, and 0.01% Triton X - 100. […] All the assays were performed in duplicate in 384 -well plates (Greiner, 784290), usi ng the Synergy 4 microplate reader (BioTek), with an excitation wavelength of 485 nm and an emission wavelength of 528 nm. Data were corrected by background of the free labeled peptides and analyzed by GraphPad […]
Detection instrument and software Synergy 4 microplate reader (BioTek), GraphPad […]

Each structure is given as a SMILES string.

T1 sequence (Q96T88 126-285): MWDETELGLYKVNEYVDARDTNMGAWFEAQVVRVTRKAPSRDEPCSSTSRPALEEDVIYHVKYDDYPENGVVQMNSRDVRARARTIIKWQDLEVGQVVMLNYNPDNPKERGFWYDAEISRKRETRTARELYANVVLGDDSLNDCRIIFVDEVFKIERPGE

For the compound `Cn1c2c(c(=N)c3c1CCC3)CCC2` [Compound 1, 4-methyl-2,3,4,5,6,7-hexahydrodicyclopenta[b,e]pyridin-8(1H)-imine], the “outcome of fragment screen” value is “hit”.
